Legend:
SOD1 G93A mice [1] = experiment: Survival analysis (Kaplan-Meier) in SOD1 G93A (high copy) mouse model of ALS
Text: (i) Model Description: The SOD1 G93A (high copy) mouse model was used as the model for ALS. This mouse model carries 25 copies of the human G93A SOD mutation and is driven by the endogenous promoter.
(ii) Murine FALS model: Heterozygous transgenic mice carrying the human SOD-1 (G93A) gene were obtained from Jackson Laboratory (Bar Harbor, Me., USA).
(iv) Methods: Forty (n=40) SOD1 G93A high copy mice obtained from Jackson Laboratory (Bar Harbor, Me.) were separated into two groups of twenty (n=20) with an equal number of males (n=10) and females (n=10) in each group. The groups were also litter matched to reduce group variation. Male animals were singly housed and females were group housed to conserve space. […] When animals had difficulty in moving and taking care of themselves chow and water were replaced with food pellets in bedding and Jell-O for water. (v) Pharmacological Agent Delivery: All pharmacological agents were administered to SOD1 G93A mice.
Controls animals were given water as vehicle. All treatments are performed 7 days per week and treatment was initiated at day 60 of life. […] When a neurological score of 2 is attained, the animals are no longer capable of drinking themselves due to paralysis. […] Controls were given water as vehicle until a neurological score of 2 at which point they were injected with saline as vehicle.
• 0=Normal reflex on the hind limbs (animal will splay its hind limbs when lifted by its tail). • 1=Abnormal reflex of hind limbs (lack of splaying of hind limbs when animal is lifted by the tail). • 2=Abnormal reflex of limbs and evidence of paralysis. • 3=Lack of reflex and complete paralysis. • 4=Inability to right themselves when placed on the sides in 30 seconds or found dead. The animals are sacrificed at this stage if alive.

SOD1 G93A mice [2] = experiment: Neurological score analysis in SOD1 G93A (high copy) mouse model of ALS; format: in vivo
Text: Survival in the mouse is copy dependent.
Controls animals were given water as vehicle.

SOD1 G93A mice [3] = settings: mouse, in vivo, ip, 250 mg/kg/day
[4] = system: patients with advanced non-small cell lung cancer; settings: Phase I, advanced non-small cell lung cancer (Hahm et al. 2002); cited from earlier work
[5] = discontinuous dosing 3200 mg/Kg/day in drinking water, 21 days on / 7 days off
[6] = female mice, IP 24 mg/kg/day twice daily till death, FIG. 12

## NCCCC(N)(C(=O)O)C(F)F (racemic) [DFMO, 2-(Difuoromethyl)-DL-ornithine]
SOD1 G93A mice [1]; continuous dosing 3200 mg/Kg/day in drinking water, no drug holiday
  onset of disease: delays the onset of disease
SOD1 G93A mice [1]; continuous dosing 3200 mg/Kg/day in drinking water, no drug holiday, combined, male and female, FIGS. 4, 6 and 8
  life span: extended the life span
SOD1 G93A mice [1]; [5]
  onset of disease: delays the onset of disease
  survival: extends the survival
SOD1 G93A mice [1]; females, discontinuous dosing 3200 mg/Kg/day in drinking water, 21 days then 7 day drug holiday, FIG. 2
  deaths of animals in the treatment group during the drug holiday or a few days immediately succeeding it: 70%
SOD1 G93A mice [1]; ongoing IP injection study, 3200 mg/kg, male mice
  trend in male mice: positive male trend
SOD1 G93A mice [2]; combined male and female, continuous dosing 3200 mg/Kg/day, FIGS. 5
  effect on neurological score: protective
SOD1 G93A mice [2]; female mice, discontinuous dosing 3200 mg/Kg/day, during the drug delivery period
  effect on neurological score: protective
SOD1 G93A mice [2]; female, continuous dosing 3200 mg/Kg/day, FIG. 9
  effect on neurological score: protective
SOD1 G93A mice [2]; male, continuous dosing 3200 mg/Kg/day, FIG. 7
  effect on neurological score: protective

## NC(=O)NO [hydroxyurea]
SOD1 G93A mice [1]; IP 250 mg/Kg/day once daily, day 50 until day 110
  onset of ALS disease: delays the onset of ALS disease
SOD1 G93A mice [1]; female mice, IP 250 mg/Kg/day once daily, day 50 until day 110, FIG. 10
  life span: extended the life span
SOD1 G93A mice [2]; female mice, IP 250 mg/Kg/day once daily, day 50 until day 110, FIG. 11
  effect on neurological score: protective
SOD1 G93A mice [3]
  toxicity leading to stop of treatment: discontinued after day 110 due to toxicity

## CCNCCCNCCCNCCCNCC [DENSPM, N(1),N(11)-diethylnorspermine]
[4]
  toxicity in patients: minimal toxicity
SOD1 G93A mice [1]; [6]
  onset of disease: delays the onset of disease
  survival: extends the survival
SOD1 G93A mice [2]; female mice, IP 24 mg/kg/day twice daily till death, FIG. 13
  effect on neurological score: protective

— patent US7273888B2, “Use of difluoromethylornithine (DFMO) for the treatment of amyotrophic lateral sclerosis” (ALS Therapy Development Foundation, Inc., priority 2001, dated 2007)
